Key:
Format in all cases: in vivo, human
[1] = system: texture liking of strawberry fruit (consumer panel); assay: Strawberry consumer panel: bivariate fit to texture liking; conditions: bivariate linear fit; X = content of the substance in strawberry fruit, Y = Texture liking
Method: (§1) All consumer panels were approved by the University of Florida Institutional Review Board. […] Ages of panelist ranged from 18 to 71, with a median age of 24. Panelists self-classified themselves as 98 White or Caucasian, 11 Black or African-American, 1 Native American, Alaska Native or Aleutian, 41 Asian/Pacific Islander, and 15 Other. […] Fresh, fully-ripe strawberry fruit was removed from overnight 4° C. dark storage and allowed to warm to room temperature prior to sensory analysis. Each panelist was given one to two whole strawberries for evaluation, depending on cultivar availability. Panelist took a bite of each sample, chewed, and swallowed it. Ratings for overall liking and liking for texture were scaled on hedonic general labeled magnitude scale (gLMS) in the context of all pleasure/displeasure experiences. […] Scales were employed to mediate valid comparisons across subjects and sessions.
(§2) Bivariate analysis among individual measurements of samples allowed for linear fit, which includes summary of fit, analysis of variance, t-test, and correlation analysis for density ellipse. Two-way Ward hierarchical cluster analysis of all metabolite concentrations and strawberry samples accomplished in JMP.

[2] = system: strawberry flavor intensity (consumer panel); assay: Strawberry consumer panel: bivariate fit to strawberry flavor intensity; conditions: for Parameter Estimates: Estimate: bivariate linear fit, X = content of the substance in strawberry fruit, Y = Flavor Intensity (FI); for relationship to strawberry flavor intensity / sensory perception: in words
Method: as §1, §2

[3] = system: perceived sweetness intensity of strawberry fruit (consumer panel); assay: Strawberry consumer panel: multiple regression of volatile concentration against perceived sweetness intensity independent of glucose, fructose or sucrose; conditions: for enhancement of perceived intensity of sweetness independent of sugars: in words; for negatively related to sweetness: sugar(s) of which the effect is independent: compounds negatively related to sweetness independent of at least one of the sugars
Method: Step-wise multiple regressions of all volatile compounds against perceived intensity of sweetness is performed independent of either glucose, fructose, or sucrose concentration, separately (Table 6).
as §1
Multiple regressions were performed with the “enter” method in SPSS for identification of sweetness enhancing volatiles. Individual volatile compound concentrations were regressed using the “enter” method in SPSS Statistics (IBM Corp, Armonk, N.Y., USA).

C=CC(C)(O)CC/C=C(\C)CCC=C(C)C (stereo not drawn) [40716-66-3]
Parameter Estimates-fit to Texture Liking: Estimate [1]: 0.01941 | Parameter Estimates: Estimate [2]: 0.01223

CCCC(=O)CC [589-38-8]
Parameter Estimates-fit to Texture Liking: Estimate [1]: 0.4306 | Parameter Estimates: Estimate [2]: 0.4621

C/C=C/C(=O)OC [623-43-8]
Parameter Estimates-fit to Texture Liking: Estimate [1]: −0.7133 | Parameter Estimates: Estimate [2]: −0.101

C=C[C@]1(C)CC[C@H](C(C)(C)O)O1 [5989-33-3]
Parameter Estimates-fit to Texture Liking: Estimate [1]: 0.6605 | Parameter Estimates: Estimate [2]: 0.7378

C=CC(O)CC (stereo not drawn) [616-25-1]
Parameter Estimates-fit to Texture Liking: Estimate [1]: 0.06401 | Parameter Estimates: Estimate [2]: 0.2097

CCC(C)COC(C)=O (stereo not drawn) [624-41-9]
Parameter Estimates-fit to Texture Liking: Estimate [1]: −0.03512 | Parameter Estimates: Estimate [2]: 0.009696

CCC/C=C/COC(C)=O [2497-18-9]
Parameter Estimates-fit to Texture Liking: Estimate [1]: −0.02456 | Parameter Estimates: Estimate [2]: 0.008248

CCCCCC(=O)OCC [123-66-0]
Parameter Estimates-fit to Texture Liking: Estimate [1]: −0.0003354 | Parameter Estimates: Estimate [2]: 0.002386 | relationship to strawberry flavor intensity / sensory perception [2]: no bearing on sensory perception

CC/C=C/C=O [1576-87-0, (E)-pent-2-en-1-al]
relationship to strawberry flavor intensity / sensory perception [2]: enhancing toward flavor intensity

C=CC(=O)CC [1629-58-9, 1-penten-3-one]
enhancement of perceived intensity of sweetness independent of sugars [3]: mutually independent of all three sugar

CCC(C)(C)O [75-85-4]
Parameter Estimates-fit to Texture Liking: Estimate [1]: 0.3219 | Parameter Estimates: Estimate [2]: 0.1051

CC(=O)CC(C)C [108-10-1, 4-Methyl-2-pentanone]
negatively related to sweetness: sugar(s) of which the effect is independent [3]: mutually independent of glucose and fructose

CCCCCCOC(C)=O [142-92-7, hexyl acetate]
enhancement of perceived intensity of sweetness independent of sugars [3]: mutually independent of all three sugar

CC(=O)OCC=C(C)C [1191-16-8, 3-methyl-2-buten-1-yl acetate]
negatively related to sweetness: sugar(s) of which the effect is independent [3]: exclusively independent of sucrose

O=C(O)CC(O)C(=O)O (stereo not drawn) [Malic]
Parameter Estimates-fit to Texture Liking: Estimate [1]: 0.05905 | Parameter Estimates: Estimate [2]: 0.001142

CCCC(=O)OCC [105-54-4, ethyl butyrate]
relationship to strawberry flavor intensity / sensory perception [2]: significant positive correlation with flavor intensity

O=C(O)CC(O)(CC(=O)O)C(=O)O [Citric]
Parameter Estimates-fit to Texture Liking: Estimate [1]: −0.001831 | Parameter Estimates: Estimate [2]: 0.01293

CCCCC/C=C\C=O [20664-46-4]
Parameter Estimates-fit to Texture Liking: Estimate [1]: −0.04121 | Parameter Estimates: Estimate [2]: 0.03985

CCCCC=O [110-62-3]
Parameter Estimates-fit to Texture Liking: Estimate [1]: 0.1789 | Parameter Estimates: Estimate [2]: −0.1249 | relationship to strawberry flavor intensity / sensory perception [2]: negatively correlated to flavor

CSC(C)=O [1534-08-3]
Parameter Estimates-fit to Texture Liking: Estimate [1]: 0.06449 | Parameter Estimates: Estimate [2]: 1.808

CCCC(=O)OC(C)CCC (stereo not drawn) [60415-61-4, 2-pentanyl butyrate]
enhancement of perceived intensity of sweetness independent of sugars [3]: mutually independent of all three sugar

CCCCC/C=C/C=O [2548-87-0]
Parameter Estimates-fit to Texture Liking: Estimate [1]: 1.345 | Parameter Estimates: Estimate [2]: 0.6039

CC(=O)OCc1ccccc1 [140-11-4]
Parameter Estimates-fit to Texture Liking: Estimate [1]: −0.0849 | Parameter Estimates: Estimate [2]: 0.02204

CCCOC(C)=O [109-60-4]
Parameter Estimates-fit to Texture Liking: Estimate [1]: −0.5137 | Parameter Estimates: Estimate [2]: −0.05307

CCCCCCC=O [111-71-7, heptanal]
enhancement of perceived intensity of sweetness independent of sugars [3]: show evidence of enhancing perceived sweetness intensity independent of individual sugars

CCCCOC(=O)CC(C)C [109-19-3, butyl 3-methylbutanoate]
enhancement of perceived intensity of sweetness independent of sugars [3]: show evidence of enhancing perceived sweetness intensity independent of individual sugars

CCCCCOC(C)=O [628-63-7]
Parameter Estimates-fit to Texture Liking: Estimate [1]: −0.1907 | Parameter Estimates: Estimate [2]: 0.4892

CCC(O)C(=O)OC (stereo not drawn) [29674-47-3]
Parameter Estimates-fit to Texture Liking: Estimate [1]: 0.02693 | Parameter Estimates: Estimate [2]: 0.207

CCCCC(=O)OC [624-24-8]
Parameter Estimates-fit to Texture Liking: Estimate [1]: 0.2596 | Parameter Estimates: Estimate [2]: −0.1

From US20170119034A1, “COMPOSITIONS AND METHODS FOR MODIFYING PERCEPTION OF SWEET TASTE” (University of Florida Research Foundation, Inc., priority 2012, published 2017)
